± gives the expanded uncertainty stated by the source.
Conditions: Liquid

| Critical pressure | Critical temperature | SMILES |
| --- | --- | --- |
| 7379.8 ± 300 kPa | 304.3 ± 3.7 K | O=C=O [carbon dioxide] |
| 3828.9 ± 300 kPa | 523.29 ± 3.7 K | CCOC(C)=O [ethyl acetate] |
| 2891.5 ± 300 kPa | 569.98 ± 3.7 K | CCCC(=O)OCC [ethyl butanoate] |
| 2356.9 ± 300 kPa | 635.12 ± 3.7 K | CCCCCCC(=O)OCC [ethyl heptanoate] |
| 2531.3 ± 300 kPa | 615.22 ± 3.7 K | CCCCCC(=O)OCC [ethyl hexanoate] |
| 2159.2 ± 300 kPa | 655.74 ± 3.7 K | CCCCCCCC(=O)OCC [ethyl octanoate] |
| 2730.4 ± 300 kPa | 594.02 ± 3.7 K | CCCCC(=O)OCC [ethyl pentanoate] |
| 3385.6 ± 300 kPa | 546.28 ± 3.7 K | CCOC(=O)CC [ethyl propanoate] |
| 3670.8 ± 300 kPa | 593.84 ± 3.7 K | C/C=C/C(=O)OCC [ethyl trans-2-butenoate] |

From the NIST ThermoML archive (doi:10.1021/je5002494)
